Measured values taken from ChEMBL document CHEMBL5370661, “Development of Fluorescent AF64394 Analogues Enables Real-Time Binding Studies for the Orphan Class A GPCR GPR3” (J Med Chem, 2023).
The source made the active and inactive calls. No cut-off for these calls is given here.

Experiments:
[1] = target: T1, G-protein coupled receptor 3 (Homo sapiens, UniProt P46089); assay: Binding affinity to N-terminal 3xHA/Nluc-tagged full-length wild-type human GPR3 expressed in HEK293A cells using vivazine as substrate measured for 180 mins by time-course saturation based NanoBRET assay; format: cell-based; settings: for Activity: HEK293-A
T1 sequence (P46089 whole entry): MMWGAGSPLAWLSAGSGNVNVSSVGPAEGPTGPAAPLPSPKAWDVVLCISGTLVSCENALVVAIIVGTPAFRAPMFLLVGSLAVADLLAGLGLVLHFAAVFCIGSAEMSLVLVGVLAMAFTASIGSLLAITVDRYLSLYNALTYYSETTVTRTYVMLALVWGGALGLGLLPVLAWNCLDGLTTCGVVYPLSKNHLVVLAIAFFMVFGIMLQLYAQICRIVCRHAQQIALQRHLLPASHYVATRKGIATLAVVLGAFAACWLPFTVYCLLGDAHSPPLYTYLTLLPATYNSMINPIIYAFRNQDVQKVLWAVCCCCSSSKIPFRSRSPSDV

[2] = target: T1, G-protein coupled receptor 3; assay: Binding affinity to N-terminal 3xHA/Nluc-tagged full-length wild-type human GPR3 expressed in HEK293A cells using vivazine as substrate at <10 uM measured for 180 mins by time-course saturation based NanoBRET assay; format: cell-based; settings: HEK293-A
[3] = target: T1, G-protein coupled receptor 3; assay: Total binding affinity to N-terminal 3xHA/Nluc-tagged full-length wild-type human GPR3 expressed in HEK293A cells using furimazine as substrate measured for 3 hrs by NanoBRET assay; format: cell-based, HEK293-A
[4] = target: T1, G-protein coupled receptor 3; assay: Binding affinity to N-terminal 3xHA/Nluc-tagged full-length wild-type human GPR3 expressed in HEK293A cells using vivazine as substrate by time-course saturation based NanoBRET assay; format: cell-based; settings: HEK293-A, time 180.0 min, TDE = time-dependent effect
[5] = target: T1, G-protein coupled receptor 3; assay: Binding affinity to N-terminal 3xHA/Nluc-tagged full-length wild-type human GPR3 expressed in HEK293A cells using vivazine as substrate at <=30 uM measured for 180 mins by time-course saturation based NanoBRET assay; format: cell-based; settings: HEK293-A
[6] = target: T1, G-protein coupled receptor 3; assay: Specific binding affinity to N-terminal 3xHA/Nluc-tagged full-length wild-type human GPR3 expressed in HEK293A cells using furimazine as substrate measured for 3 hrs by NanoBRET assay; format: cell-based, HEK293-A
HEK293-A [7] = assay: Binding affinity to Nluc-tagged GPR3 T279A/Y280A mutant (unknown origin) expressed in HEK293A cells assessed as decrease in cAMP level by biosensor based FRET assay; format: cell-based; settings: Homo sapiens, filed as modulator
[8] = tested on: G-protein coupled receptor 3 (Homo sapiens), P46089 [Y188W]; assay: Binding affinity to Nluc-tagged GPR3 Y188W mutant (unknown origin) expressed in HEK293A cells assessed as decrease in cAMP level by biosensor based FRET assay; format: cell-based; settings: HEK293-A, filed as modulator
Chain of G-protein coupled receptor 3 (Homo sapiens), P46089 [Y188W] (P46089 whole entry Y188W): as the sequence (P46089 whole entry) above, with Y188W counted along it

[9] = Specific binding affinity to N-terminal 3xHA/Nluc-tagged full-length wild-type human GPR12 expressed in HEK293A cells using furimazine as substrate measured for 3 hrs by NanoBRET assay; format: cell-based; settings: hek293-a
[10] = target: T1, G-protein coupled receptor 3; assay: Modulation of N-terminal 3xHA/Nluc-tagged full-length wild-type human GPR3 expressed in HEK293A cells using furimazine as substrate at 1 uM measured for 3 hrs in presence of DPI by NanoBRET assay; format: cell-based, HEK293-A
[11] = tested on: G-protein coupled receptor 3 (Homo sapiens), P46089 [V186W,V187W,Y188W]; assay: Binding affinity to Nluc-tagged GPR3 V186W/V187W/Y188W mutant (unknown origin) expressed in HEK293A cells assessed as decrease in cAMP level by biosensor based FRET assay; format: cell-based; settings: HEK293-A
Chain of G-protein coupled receptor 3 (Homo sapiens), P46089 [V186W,V187W,Y188W] (P46089 whole entry V186W/V187W/Y188W): as the sequence (P46089 whole entry) above, with V186W, V187W, Y188W counted along it

[12] = target: T1, G-protein coupled receptor 3; assay: Binding affinity to N-terminal 3xHA/Nluc-tagged full-length wild-type human GPR3 expressed in HEK293A cells using vivazine as substrate assessed as increase in BRET ratio by time-course saturation based NanoBRET assay; format: cell-based; settings: HEK293-A, filed as modulator
HEK293-A [13] = assay: Downregulation of CRE gene activity in HEK293-A cells expressing GPR6 incubated for 24 hrs by luciferase based assay; format: functional, cell-based; settings: Homo sapiens
HEK293-A [14] = assay: Downregulation of CRE gene activity in HEK293-A cells expressing GPR12 incubated for 24 hrs by luciferase based assay; format: functional, cell-based; settings: Homo sapiens
[15] = tested on: G-protein coupled receptor 3 (Homo sapiens), P46089 [V187W,Y188W]; assay: Binding affinity to Nluc-tagged GPR3 V187W/Y188W mutant (unknown origin) expressed in HEK293A cells assessed as decrease in cAMP level by biosensor based FRET assay; format: cell-based; settings: HEK293-A, filed as modulator
Chain of G-protein coupled receptor 3 (Homo sapiens), P46089 [V187W,Y188W] (P46089 whole entry V187W/Y188W): as the sequence (P46089 whole entry) above, with V187W, Y188W counted along it

[16] = target: T2, G-protein coupled receptor 6 (Homo sapiens, UniProt P46095); assay: Competitive total binding affinity to full-length wild-type human brain GPR6 expressed in HEK293A cells using furimazine as substrate at 1 uM measured for 3 hrs in presence of CVN424 by NanoBRET assay; format: cell-based, HEK293-A
T2 sequence (P46095 whole entry): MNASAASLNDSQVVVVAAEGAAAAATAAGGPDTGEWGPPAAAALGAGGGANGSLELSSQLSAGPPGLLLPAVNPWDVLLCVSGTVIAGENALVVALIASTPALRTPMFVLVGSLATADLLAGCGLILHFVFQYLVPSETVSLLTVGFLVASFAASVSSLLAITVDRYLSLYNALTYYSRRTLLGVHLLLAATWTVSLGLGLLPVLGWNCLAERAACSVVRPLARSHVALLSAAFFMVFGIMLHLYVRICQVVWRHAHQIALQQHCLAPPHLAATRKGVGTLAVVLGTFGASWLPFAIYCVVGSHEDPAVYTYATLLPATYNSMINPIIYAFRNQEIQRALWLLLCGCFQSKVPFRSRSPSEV

[17] = target: T1, G-protein coupled receptor 3; assay: Competitive total binding affinity to N-terminal 3xHA/Nluc-tagged full-length wild-type human GPR3 expressed in HEK293A cells using furimazine as substrate at 1 uM measured for 3 hrs in presence of AF64394 by NanoBRET assay; format: cell-based, HEK293-A
[18] = target: T2, G-protein coupled receptor 6; assay: Specific binding affinity to full-length wild-type human brain GPR6 expressed in HEK293A cells using furimazine as substrate measured for 3 hrs by NanoBRET assay; format: cell-based, HEK293-A
[19] = target: T1, G-protein coupled receptor 3; assay: Inverse agonist activity at N-terminal 3xHA/Nluc-tagged full-length wild-type human GPR3 expressed in HEK293A cells co-expressing Fluc-tagged CRE assessed as reduction in CRE gene expression at 10 uM incubated for 24 hrs by luciferase based assay; format: functional, cell-based; settings: HEK293-A, filed as inverse agonist
[20] = Chemical stability of compound in DMSO assessed as compound degradation incubated for 104 days by RP-HPLC analysis; format: physicochemical; settings: 2496 h; time 104 day
[21] = target: T1, G-protein coupled receptor 3; assay: Binding affinity to N-terminal 3xHA/Nluc-tagged full-length wild-type human GPR3 expressed in HEK293A cells using vivazine as substrate at 20 to 30 uM measured for 180 mins by time-course saturation based NanoBRET assay; format: cell-based; settings: HEK293-A, dose 20-30 µM
[22] = Chemical stability of compound in aqueous solution assessed as compound degradation incubated for 104 days by RP-HPLC analysis; format: physicochemical; settings: buffer, 2496 h; time 104 day
[23] = target: T1, G-protein coupled receptor 3; assay: Binding affinity to N-terminal 3xHA/Nluc-tagged full-length wild-type human GPR3 expressed in HEK293A cells assessed as increase in BRET ratio incubated for 180 mins by NanoBRET assay; format: cell-based; settings: HEK293-A

Structure (SMILES)	Activity [1]	EC50 [3]	Activity [4]	Activity [5]	also measured
CC(C)Oc1cc(Cl)ccc1CNc1cc(-c2cccc(OCCOCCOCCOCCNC(=O)c3ccc(-c4c5ccc(N(C)C)cc5[o+]c5cc(N(C)C)ccc45)c(C(=O)[O-])c3)c2)nc2ncnn12	Dose-Dependent Effect	> 10000 nM	Tde	Active	Activity [2]: inactive
COCC[N+]1=C(/C=C/C=C2/N(CCCCCC(=O)NCCOCCOCCOCCOc3ccc(-c4cc(NCc5ccc(Cl)cc5OC(C)C)n5ncnc5n4)cc3)c3ccc(S(=O)(=O)O)cc3C2(C)CCCS(=O)(=O)O)C(C)(CCCS(=O)(=O)O)c2cc(S(=O)(=O)[O-])ccc21 (configuration not stated)	inactive	> 31600 nM	–	–	–
CC(C)Oc1cc(Cl)ccc1CNc1cc(-c2ccc(OCCOCCOCCOCCNC(=O)c3ccc(-c4c5ccc(N(C)C)cc5[o+]c5cc(N(C)C)ccc45)c(C(=O)[O-])c3)cc2)nc2ncnn12	Dose-Dependent Effect	> 10000 nM	Tde	Active	Activity [2]: inactive
COCC[N+]1=C(/C=C/C=C2/N(CCCCCC(=O)NCCOCCOCCOCCOc3cccc(-c4cc(NCc5ccc(Cl)cc5OC(C)C)n5ncnc5n4)c3)c3ccc(S(=O)(=O)O)cc3C2(C)CCCS(=O)(=O)O)C(C)(CCCS(=O)(=O)O)c2cc(S(=O)(=O)[O-])ccc21 (configuration not stated)	inactive	> 31600 nM	–	–	–
CC(C)Oc1cc(Cl)ccc1CNc1cc(-c2ccccc2OCCCCCCNC(=O)c2ccc(-c3c4ccc(N(C)C)cc4[o+]c4cc(N(C)C)ccc34)c(C(=O)[O-])c2)nc2ncnn12	–	891 nM	–	–	Kd [6]: 302 nM; Kd [1]: 102 nM; Activity ([1]; filed as modulator): Dose-Dependent Effect; Activity (HEK293-A [7]): Active; Activity [8]: Active; pKd [9]: 7.12; EC50 [10]: 1410 nM; Activity ([4]; filed as modulator): Tde; Activity ([11]; filed as modulator): Active; Activity [12]: Dose-Dependent Effect; Activity (HEK293-A [13]): Active; Activity (HEK293-A [14]): Active; Activity [15]: Active; IC50 [16]: 214 nM; Ki [16]: 13.2 nM; IC50 [17]: 1260 nM; Ki [17]: 295 nM; Activity ([5]; filed as modulator): Active; Kd [18]: 66.1 nM; Activity [19]: Active
COCC[N+]1=C(/C=C/C=C2/N(CCCCCC(=O)NCCOCCOCCOCCOCCOCCOc3ccccc3-c3cc(NCc4ccc(Cl)cc4OC(C)C)n4ncnc4n3)c3ccc(S(=O)(=O)O)cc3C2(C)CCCS(=O)(=O)O)C(C)(CCCS(=O)(=O)O)c2cc(S(=O)(=O)[O-])ccc21 (configuration not stated)	inactive	> 31600 nM	–	–	–
CC(C)Oc1cc(Cl)ccc1CNc1cc(-c2cccc(OCCCCCCNC(=O)c3ccc(-c4c5ccc(N(C)C)cc5[o+]c5cc(N(C)C)ccc45)c(C(=O)[O-])c3)c2)nc2ncnn12	Dose-Dependent Effect	4470 nM	Tde	Active	Stability [20]: Stable
CC(C)Oc1cc(Cl)ccc1CNc1cc(-c2ccccc2OCCOCCOCCOCCNC(=O)CCCCCN2/C(=C/C=C/C3=[N+](CCOO)c4ccc(S(=O)(=O)O)cc4C3(C)CCCS(=O)(=O)[O-])C(C)(CCCS(=O)(=O)O)c3cc(S(=O)(=O)O)ccc32)nc2ncnn12 (configuration not stated)	inactive	> 31600 nM	–	–	–
CC(C)Oc1cc(Cl)ccc1CNc1cc(-c2ccccc2OCCOCCOCCOCCOCCOCCNC(=O)c2ccc(-c3c4ccc(N(C)C)cc4[o+]c4cc(N(C)C)ccc34)c(C(=O)[O-])c2)nc2ncnn12	Dose-Dependent Effect	4470 nM	Tde	Active	Activity [21]: inactive
CC(C)Oc1cc(Cl)ccc1CNc1cc(-c2ccccc2OCCOCCOCCOCCNC(=O)c2ccc(-c3c4ccc(N(C)C)cc4[o+]c4cc(N(C)C)ccc34)c(C(=O)[O-])c2)nc2ncnn12	Dose-Dependent Effect	3390 nM	Tde	Active	Activity [21]: inactive; Stability [22]: Stable
CC(C)Oc1cc(Cl)ccc1CNc1cc(-c2cc(F)ccc2Cl)nc2ncnn12	–	–	–	–	Activity [11]: inactive; Activity [19]: Active
CN(C)c1ccc2c(-c3ccc(C(=O)NCCCC(=O)Nc4ccc(CCN5CN(c6ccccc6)C6(CCN(CCCC(=O)c7ccc(F)cc7)CC6)C5=O)cc4)cc3C(=O)[O-])c3ccc(N(C)C)cc3[o+]c2c1	–	–	–	–	Activity [23]: inactive
CC(C)Oc1cc(Cl)ccc1CNc1cc(-c2ccc(OCCCCCCNC(=O)c3ccc(-c4c5ccc(N(C)C)cc5[o+]c5cc(N(C)C)ccc45)c(C(=O)[O-])c3)cc2)nc2ncnn12	Dose-Dependent Effect	11200 nM	Tde	Active	–
